Read-outs that look alike come from different tables or passages of the source.
Assays:
MRSA 15903 = test: microbe, parasite or virus in culture; type: cell-based, Staphylococcus aureus
Outline: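 Values are FIC indexes, summing each agent's MIC in combination divided by its MIC alone, for MRSA 15903. Interpretation: <0.5 clear re-sensitization, 0.5 to 4 marginal or none, >4 antagonistic.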

S. aureus 15819 = test: Antibiotic MIC by microdilution with or without sub-MIC polymer; type: cell-based, Staphylococcus aureus; settings: S. aureus 15819
Method: MICs were determined by microdilution susceptibility testing in 96-well plates (Nunc) using inocula of 10^5 bacteria per ml. One hundred (100) μl of a bacterial suspension were added to 100 μl of culture medium (control) or to 100 μl of culture medium containing various antibiotic and C12(5-ene)KKNC12KNH2 (SEQ ID NO: 2) concentrations in 2-fold serial dilutions. Inhibition of proliferation was determined by optical density measurements at 620 nm after an incubation period of 24 hours at 37° C.

S. aureus 15877 = test: as above; type: cell-based, Staphylococcus aureus
E. coli 14384 = test: as above; type: cell-based, Escherichia coli; settings: E. coli 14384
Method: (§1) MICs were determined by microdilution susceptibility testing in 96-well plates (by Nunc) using inocula of 10^5 bacteria per ml. Cell populations were evaluated by optical density measurements at 620 nm and were calibrated against a set of standards. Hundred (100) μl of a bacterial suspension were added to 100 μl of culture medium (control) or to 100 μl of culture medium containing various polymer concentrations in 2-fold serial dilutions. Inhibition of proliferation was determined by optical density measurements at 620 nm after an incubation period of 24 hours at 37° C.
(§2) 100 μl of a bacterial suspension were added to 100 μl of culture medium (control) or to 100 μl of culture medium containing various antibiotic and C14(9-ene)KKNC12KNH2 (SEQ ID NO: 5) concentrations in 2-fold serial dilutions. Inhibition of proliferation was determined by optical density measurements at 620 nm after an incubation period of 24 hours at 37° C.

E. coli 16329 = type: cell-based, Escherichia coli; settings: E. coli U-16329
Method: as §1, §2

E. coli 14182 = test: Antibiotic MIC by microdilution with or without sub-MIC polymer; type: cell-based, Escherichia coli
S. maltophila 748 = test: as above; type: cell-based, Stenotrophomonas maltophila
[1] = tested on: E. coli K-12 efflux knockout mutant; type: cell-based, Escherichia coli; settings: E. coli AG100A (efflux−)
Outline: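 Broth microdilution, inocula 10^5 bacteria/ml, 24 h at 37 °C. Growth read as OD620 against calibration standards.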

[2] = tested on: E. coli K-12 resistant wild type; type: cell-based, Escherichia coli; settings: E. coli AG100 (w.t.)
S. aureus 43300 = test: Antibiotic MIC by microdilution with or without sub-MIC polymer; type: cell-based, Staphylococcus aureus
[3] = +¼ MIC (1.6 μM) C12(5-ene)KKNC12KNH2
[4] = +¼ MIC (1.6 μM) C12K(KNC12K)3NH2
[5] = +½ MIC (3.12 μM) C12(5-ene)KKNC12KNH2
[6] = +⅓ MIC (2.1 μM) C12(5-ene)KKNC12KNH2
[7] = +⅓ MIC (2.1 μM) C12K(KNC12K)3NH2
[8] = +½ MIC (3.12 μM) C14(9-ene)KKNC12KNH2
[9] = polymer at ½ of its MIC (Table 16)
[10] = the OAK at ½ of its MIC (Table 17)

CC[C@H]1OC(=O)[C@H](C)[C@@H](O[C@H]2C[C@@](C)(OC)[C@@H](O)[C@H](C)O2)[C@H](C)[C@@H](O[C@@H]2O[C@H](C)C[C@H](N(C)C)[C@H]2O)[C@](C)(O)C[C@@H](C)C(=O)[C@H](C)[C@@H](O)[C@]1(C)O [Erythromycin, erythromycin]
MIC (MRSA 15903; MRSA 15903, +¼ polymer MIC (1.6 μM) NC12(KNC12K)2NH2): 1 µg/mL | MIC (MRSA 15903; MRSA 15903, +½ polymer MIC (3.1 μM) NC12(KNC12K)2NH2): 0.016 µg/mL | MIC, ½ + MIC OAK (MRSA 15903; MRSA 15903, with C12K(KNC10K)3NH2 (SEQ ID NO: 10) at ½ of its MIC): 0.13 to 0.25 µg/mL | MIC, ⅓ + MIC OAK (MRSA 15903; MRSA 15903, with C12K(KNC10K)3NH2 (SEQ ID NO: 10) at ⅓ of its MIC): 0.5 µg/mL | MIC (MRSA 15903; S. aureus CI-15903, +polymer (¼ MIC) C12(5-ene)KKNC12KNH2): 0.5 µg/mL | MIC (MRSA 15903; S. aureus CI-15903, +polymer (½ MIC) C12(5-ene)KKNC12KNH2): 0.1 µg/mL | MIC (MRSA 15903; S. aureus CI-15903, +polymer (⅓ MIC) C12(5-ene)KKNC12KNH2): 0.1 µg/mL | MIC (MRSA 15903; Staphylococcus aureus, MRSA, 24 h, MRSA 15903, antibiotic alone (Table 22), read-out: MIC, Alone): 1 µg/mL | MIC (MRSA 15903; Staphylococcus aureus, MRSA, 24 h, MRSA 15903, antibiotic alone, read-out: MIC): 0.5 µg/mL | MIC (MRSA 15903; Staphylococcus aureus, MRSA, 24 h, S. aureus CI-15903, alone, read-out: MIC): 0.5 µg/mL | Antibiotic MIC (S. aureus 15819; [3]): 0.25 µg/mL | Antibiotic MIC (S. aureus 15819; [4]): 0.5 µg/mL | Antibiotic MIC (S. aureus 15819; +¼ MIC (1.6 μM) C12KKNC12KNH2): 0.5 µg/mL | Antibiotic MIC (S. aureus 15819; [5]): 0.25 µg/mL | Antibiotic MIC (S. aureus 15819; +½ MIC (3.12 μM) C12KKNC12KNH2): 0.5 µg/mL | Antibiotic MIC (S. aureus 15819; [6]): 0.25 µg/mL | Antibiotic MIC (S. aureus 15819; [7]): 0.25 µg/mL | Antibiotic MIC (S. aureus 15819; +⅓ MIC (2.1 μM) C12KKNC12KNH2): 0.5 µg/mL | Antibiotic MIC (S. aureus 15819; no polymer (None), Table 8): 0.25 µg/mL | Antibiotic MIC (S. aureus 15819; no polymer (None), Table 11): 0.5 µg/mL | Antibiotic MIC (S. aureus 15819; no polymer (None), Table 13): 0.5 µg/mL | Antibiotic MIC (S. aureus 15877; [3]): >512 µg/mL | Antibiotic MIC (S. aureus 15877; [5]): >512 µg/mL | Antibiotic MIC (S. aureus 15877; [6]): >512 µg/mL | Antibiotic MIC (S. aureus 15877; no polymer (None), Table 8): >512 µg/mL | Antibiotic MIC (E. coli 14384; +¼ MIC C12K(NC8K)5NH2): 32 to 64 µg/mL | Antibiotic MIC (E. coli 14384; [8]): 32 µg/mL | Antibiotic MIC (E. coli 14384; +½ MIC C12K(NC8K)5NH2): 4 to 8 µg/mL | Antibiotic MIC (E. coli 14384; +⅓ MIC C12K(NC8K)5NH2): 32 µg/mL | Antibiotic MIC in presence of C12K(NC8K)7NH2 (SEQ ID NO: 4), +½ MIC (E. coli 14384; polymer at ½ of its MIC): 8 to 16 µg/mL | Antibiotic MIC in presence of C12K(NC8K)7NH2 (SEQ ID NO: 4), +⅓ MIC (E. coli 14384; polymer at ⅓ of its MIC): 16 to 32 µg/mL | Antibiotic MIC (E. coli 16329; +½ MIC C12K(NC8K)5NH2): 32 µg/mL | Antibiotic MIC in presence of C12K(NC8K)7NH2 (SEQ ID NO: 4), +½ MIC (E. coli 16329; polymer at ½ of its MIC): 16 µg/mL | Antibiotic MIC (E. coli 14182; +½ MIC C12K(NC8K)5NH2): 8 to 16 µg/mL | Antibiotic MIC (E. coli 14182; +⅓ MIC C12K(NC8K)5NH2): 32 to 64 µg/mL | Antibiotic MIC in presence of C12K(NC8K)7NH2 (SEQ ID NO: 4), +¼ MIC (E. coli 14182; polymer at ¼ of its MIC): 32 µg/mL | Antibiotic MIC in presence of C12K(NC8K)7NH2 (SEQ ID NO: 4), +½ MIC (E. coli 14182; polymer at ½ of its MIC): 8 µg/mL | Antibiotic MIC in presence of C12K(NC8K)7NH2 (SEQ ID NO: 4), +⅓ MIC (E. coli 14182; polymer at ⅓ of its MIC): 16 µg/mL | Antibiotic MIC (S. maltophila 748; [4]): 512 µg/mL | Antibiotic MIC (S. maltophila 748; [7]): 512 µg/mL | Antibiotic MIC (S. maltophila 748; no polymer (None), Table 13): 512 µg/mL | Antibiotic MIC, None ([1]; antibiotic alone (Table 16)): 4 to 8 µg/mL | Antibiotic MIC, None ([1]; antibiotic alone (Table 17)): 4 to 8 µg/mL | Antibiotic MIC in presence of C12K(NC8K)7NH2 (SEQ ID NO: 4), +¼ MIC ([1]; polymer at ¼ of its MIC (Table 16)): 4 to 8 µg/mL | Antibiotic MIC in presence of C12K(NC8K)7NH2 (SEQ ID NO: 4), +½ MIC [1, 9]: 2 µg/mL | Antibiotic MIC in presence of C12K(NC8K)7NH2 (SEQ ID NO: 4), +⅓ MIC ([1]; polymer at ⅓ of its MIC (Table 16)): 2 to 4 µg/mL | Antibiotic MIC in presence of the OAK, +¼ MIC ([1]; the OAK at ¼ of its MIC (Table 17)): 4 to 8 µg/mL | Antibiotic MIC in presence of the OAK, +½ MIC [1, 10]: 1 to 2 µg/mL | Antibiotic MIC in presence of the OAK, +⅓ MIC ([1]; the OAK at ⅓ of its MIC (Table 17)): 4 µg/mL | Antibiotic MIC in presence of C12K(NC8K)7NH2 (SEQ ID NO: 4), +½ MIC [2, 9]: 8 to 16 µg/mL | Antibiotic MIC in presence of the OAK, +½ MIC [2, 10]: 16 µg/mL | Antibiotic MIC (S. aureus 43300; [3]): 512 µg/mL | Antibiotic MIC (S. aureus 43300; +¼ MIC (1.6 μM) C12K(KNC12K)2NH2): >512 µg/mL | Antibiotic MIC (S. aureus 43300; +¼ MIC (1.6 μM) C12KKNC12KNH2): >512 µg/mL | Antibiotic MIC (S. aureus 43300; +¼ MIC (1.6 μM) C14(9-ene)KKNC12KNH2): >512 µg/mL | Antibiotic MIC (S. aureus 43300; +¼ MIC (1.6 μM) C16(9-ene)KKNC12KNH2): 512 µg/mL | Antibiotic MIC (S. aureus 43300; +½ MIC (3.12 μM) C12K(KNC12K)2NH2): >512 µg/mL | Antibiotic MIC (S. aureus 43300; +½ MIC (3.12 μM) C12KKNC12KNH2): >512 µg/mL | Antibiotic MIC (S. aureus 43300; [8]): >512 µg/mL | Antibiotic MIC (S. aureus 43300; +½ MIC (3.12 μM) C16(9-ene)KKNC12KNH2): 512 µg/mL | Antibiotic MIC (S. aureus 43300; [6]): 512 µg/mL | Antibiotic MIC (S. aureus 43300; +⅓ MIC (2.1 μM) C12K(KNC12K)2NH2): >512 µg/mL | Antibiotic MIC (S. aureus 43300; +⅓ MIC (2.1 μM) C12KKNC12KNH2): >512 µg/mL | Antibiotic MIC (S. aureus 43300; +⅓ MIC (2.1 μM) C14(9-ene)KKNC12KNH2): >512 µg/mL | Antibiotic MIC (S. aureus 43300; +⅓ MIC (2.1 μM) C16(9-ene)KKNC12KNH2): 512 µg/mL | Antibiotic MIC (S. aureus 43300; no polymer (None), Table 8): 512 µg/mL | Antibiotic MIC (S. aureus 43300; no polymer (None), Table 9): >512 µg/mL | Antibiotic MIC (S. aureus 43300; no polymer (None), Table 10): 512 µg/mL | Antibiotic MIC (S. aureus 43300; no polymer (None), Table 11): >512 µg/mL | Antibiotic MIC (S. aureus 43300; no polymer (None), Table 12): >512 µg/mL

From patent US20180153995A1, “USE OF ANTIMICROBIAL POLYMERS FOR RE-SENSITIZATION OF MICROORGANISMS UPON EMERGENCE OF RESISTANCE TO ANTI-MICROBIAL AGENTS” (Technion Research & Development Foundation Limited, priority 2008, published 2018)
